Measurements from patent US20260165323A1, “USE OF STROBILURIN TYPE COMPOUNDS FOR COMBATING PHYTOPATHOGENIC FUNGI CONTAINING AN AMINO ACID SUBSTITUTION F129L IN THE MITOCHONDRIAL CYTOCHROME B PROTEIN CONFERRING RESISTANCE TO QO […]” (priority 2022, published 2026).

How the values were obtained:
Assay type in all cases: in vivo
Puccinia recondita = assay: Use Example 4: preventative control of brown rust on wheat (PUCCRT P7); details: inoculated seven days after spraying, % diseased leaf area
Description: (§1) The compound was dissolved in a mixture of acetone and/or dimethylsulfoxide and the wetting agent/emulsifier Wettol, which is based on ethoxylated alkylphenoles, in a ratio (volume) solvent-emulsifier of 99 to 1 to give a total volume of 5 ml. Subsequently, water was added to total volume of 100 ml. This stock solution was then diluted with the described solvent-emulsifier-water mixture to the final concentration given in the tables below.
Use Example 4. Preventative Control of Brown Rust on Wheat Caused by Puccinia recondita (PUCCRT P7)
The first two developed leaves of potted wheat seedling were sprayed to run-off with previously described spray solution, containing the concentration of active ingredient or their mixture as described below. Seven days later the plants were dusted with spores of Puccinia recondita. To ensure the success of the artificial inoculation, the plants were transferred to a humid chamber without light and a relative humidity of 95 to 99% and 20 to 24° C. for 24 h. Then the trial plants were cultivated for 9 to 11 days in a greenhouse chamber at 20 to 24° C. and a relative humidity between 65 and 70%. The extent of fungal attack on the leaves was visually assessed as % diseased leaf area, the disease level of untreated controls was usually between 80 and 100%.

[1] = system: Phakopsora pachyrhizi containing the amino acid substitution F129L in the mitochondrial cytochrome b protein; assay: Use Example 1: protective control of soybean rust on soybeans (PHAKPA P2); details: inoculated 2 days after spraying, % diseased leaf area
Description: as §1
Use Example 1. Protective Control of Soybean Rust on Soybeans Caused by Phakopsora pachyrhizi (PHAKPA P2)
(§2) Leaves of potted soybean seedlings were sprayed to run-off with the previously described spray solution, containing the concentration of active ingredient or their mixture as described below. The plants were allowed to air-dry. The trial plants were cultivated for 2 days in a greenhouse chamber at 23-27° C. and a relative humidity between 60 and 80%. Then the plants were inoculated with spores of Phakopsora pachyrhizi. The strain used contains the amino acid substitution F129L in the mitochondrial cytochrome b protein conferring resistance to Qo inhibitors. To ensure the success the artificial inoculation, the plants were transferred to a humid chamber with a relative humidity of about 95% and 20 to 24° C. for 24 hr. The trial plants were cultivated for up to 14 days in a greenhouse chamber at 23 to 27° C. and a relative humidity between 60 and 80%. The extent of fungal attack on the leaves was visually assessed as % diseased leaf area, the disease level of untreated controls was usually higher than 85%.

[2] = system: Phakopsora pachyrhizi containing the amino acid substitution F129L in the mitochondrial cytochrome b protein; assay: Use Example 2: protective control of soybean rust on soybeans (PHAKPA P6); details: inoculated six days after spraying, % diseased leaf area
Description: as §1
Use Example 2. Protective Control of Soybean Rust on Soybeans Caused by Phakopsora Pachyrhizi (PHAKPA P6)
as §2, with “active ingredient as described” for “active ingredient or their mixture as described”, “cultivated for six days in” for “cultivated for 2 days in”, “95% and 23 to 27°” for “95% and 20 to 24°”, “23 to 27° C. for” for “20 to 24° C. for”

Row | Structure (SMILES) | % PUCCRT Disease level P7 at 4 ppm (Puccinia recondita) [%] | % PUCCRT Disease level P7 at 16 ppm (Puccinia recondita) [%] | % PHAKPA (F129L) Disease level P2 at 4 ppm [1] [%] | % PHAKPA (F129L) Disease level P2 at 16 ppm [1] [%] | % PHAKPA (F129L) Disease level P6 at 4 ppm [2] [%] | % PHAKPA (F129L) Disease level P6 at 16 ppm [2] [%]
1 | COC/C(=N\OCc1c(Cl)cccc1/C(=N\OC)C(=O)OC)c1ccc(F)c(F)c1 [compound 90] | 32 | 10 | 11 | 0 | 42 | 13
2 | COC/C(=N\OCc1c(Cl)cccc1/C(=N\OC)C(=O)OC)c1ccc(F)cc1F [compound 78] | 42 | 10 | 9 | 0 | 45 | 2
3 | CNC(=O)/C(=N/OC)c1cccc(Cl)c1CO/N=C(\COC)c1ccc(Cl)cc1Cl [compound 85] |  |  | 42 | 37 | 65 | 25
4 | COC/C(=N\OCc1c(Cl)cccc1/C(=N\OC)C(=O)OC)c1cc(F)c(F)c(F)c1 [compound 72] | 60 | 16 | 19 | 1 | 48 | 10
5 | COC/C(=N\OCc1c(Cl)cccc1/C(=N\OC)C(=O)OC)c1c(F)cc(Cl)cc1F [compound 89] | 36 | 25 | 53 | 17 | 45 | 13
6 | COC/C(=N\OCc1c(Cl)cccc1/C(=N\OC)C(=O)OC)c1ccccc1C [compound 124] | 62 | 22 |  |  |  | 
7 | COC/C(=N\OCc1c(Cl)cccc1/C(=N\OC)C(=O)OC)c1c(F)ccc(F)c1F [compound 111] | 30 | 17 | 39 | 5 | 42 | 15
8 | CO/C=C(/C(=O)OC)c1cccc(Cl)c1CO/N=C(\COC1CC1)c1ccc(F)cc1 [compound 60] |  |  | 21 | 2 | 21 | 6
9 | COC/C(=N\OCc1c(Cl)cccc1/C(=N\OC)C(=O)OC)c1cc(Cl)ccc1F [compound 103] |  |  | 72 | 18 | 72 | 18
10 | CNC(=O)/C(=N/OC)c1cccc(Cl)c1CO/N=C(\COC)c1ccc(F)c(F)c1F [compound 108] |  |  | 21 | 4 | 19 | 7
11 | CO/C=C(/C(=O)OC)c1cccc(Cl)c1CO/N=C(/COC)c1ccc(F)cn1 [compound 132, methyl (E)-2-[3-chloro-2-[[(E)-[1-(5-fluoro-2-pyridyl)-2-methoxy-ethylidene]amino]oxymethyl]phenyl]-3-methoxy-prop-2-enoate] |  |  |  | 33 |  | 15
12 | CO/C=C(/C(=O)OC)c1cccc(Br)c1CO/N=C(\COC1CC1)c1ccc(F)cc1 [compound 65] |  |  | 15 | 1 | 23 | 2
13 | CO/C=C(/C(=O)OC)c1cccc(Cl)c1CO/N=C(\COC)c1ccc(Cl)cc1Cl [compound 81] |  |  | 63 | 21 | 35 | 20
14 | CO/C=C(/C(=O)OC)c1cccc(Cl)c1CO/N=C(\COC)c1ccccc1Cl [compound 15, Methyl-(E)-2-[3-chloro-2-[[(Z)-[1-(2-chlorophenyl)-2-methoxy-ethylidene]amino]oxymethyl]phenyl]-3-methoxy-prop-2-enoate] |  |  | 30 | 4 | 40 | 7
15 | CNC(=O)/C(=N/OC)c1cccc(Cl)c1CO/N=C(\COC1CC1)c1ccc(F)cc1 [compound 64] |  |  | 37 | 7 | 45 | 7
16 | CNC(=O)/C(=N/OC)c1cccc(Cl)c1CO/N=C(\COC)c1cccc(F)c1F [compound 91] |  |  | 13 | 15 | 17 | 18
17 | COC/C(=N\OCc1c(Cl)cccc1/C(=N\OC)C(=O)OC)c1ccc(Cl)cc1F [compound 104] |  |  | 42 | 7 | 27 | 9
18 | COC/C(=N\OCc1c(Cl)cccc1/C(=N\OC)C(=O)OC)c1cccc(C)c1 [compound 126] |  |  | 71 | 14 | 73 | 34
19 | COC/C(=N\OCc1c(Cl)cccc1/C(=N\OC)C(=O)OC)c1ccc(Cl)c(F)c1 [compound 114] |  |  | 35 | 10 | 82 | 30
20 | CO/C=C(/C(=O)OC)c1cccc(Cl)c1CO/N=C(\COC1CC1)c1ccccc1 [compound 61] |  |  | 11 | 0 | 16 | 2
